A short description of series [1]: Serum calcium in tumor-bearing nude mice. Type of series: in vivo. To be noted: 100 ng/mouse i.p. 3 days a week, after 4 weeks; control 9.5±0.4, not significantly different (p=0.17). On the procedure:
For the mouse studies, BNX nu/nu nude mice at 8 weeks of age were purchased from Harlan Sprangue Dawley, Inc. (Indianapolis, Ind.) and their care was in accord with the guidelines of Cedars-Sinai Research Institute. They were maintained in pathogen-free conditions with irradiated chow. A total of 1×10^6 HT-29 cells in 0.1 ml of Matrigel (Collaborative Biological Products, Bedford, Mass.) were injected s.c. into bilateral flanks of each mouse, resulting in the formation of two tumors per mouse. The mice were blindly randomized to the experimental and control groups. Treatment was started on the day after the injection of […] cells and continued for 6 weeks. The control mice (five) received diluant only and the experimental mice (five) received paricalcitol [100 ng/day, intraperitoneally, 3 days per week (M,W,F)]. Tumor sizes were measured every week and calculated by the formula: A (length)×B (width)×C (height)×0.5236. After 4 weeks, blood was collected for serum calcium. All mice were euthanized at the end of the study, and the tumors were fixed in 10% neutral buffered formalin and embedded in paraffin for histological analysis. The data were analyzed by Student's t test.
To measure the serum calcium levels in mice, Sigma Diagnostics calcium reagent (Sigma, MO) containing o-cresolphthalein, which complexes with calcium to form a purple colored complex, was used.

Series [2] deals with 24-hydroxylase mRNA. Nature of the series: RT-PCR of 24-hydroxylase mRNA, spleen mononuclear cells of VDR knock-out mice. Type of series: cell-based. The conditions noted are these: cells from VDR−/− mice; 10^−8 M.
Experimental: Expression of 24 hydroxylase mRNA was analysed by RT-PCR. The amounts of mRNA were normalized by comparison to 18S RNA. For the PCR analysis, RNA extraction and reverse transcription were done by TRIzole (Invitrogen, Carlsbad, Calif.) and reverse transcriptase (Promega, Madison, Wis.). A twenty-microliter volume of cDNA was prepared from 1 μg of RNA. cDNAs were amplified by PCR with specific primers for 24-hydroxylase and 18S. The cycle number was 25 for 18S and 32 for 24-hydroxylase. PCR product was separated on a 2% agarose gel, stained with ethidium bromide, and photographed.
Isolated spleens were injected with DMEM (Gibco BRL) plus 10% FCS and crushed with forceps to release cells. Mononuclear cells from bone marrow or spleen were separated by Ficoll-Hypaque density centrifugation (Amersham Pharmacia, Uppsala, Sweden).
In series [3] the test system is 24-hydroxylase mRNA. Nature of the series: RT-PCR of 24-hydroxylase mRNA in HL-60 cells. Type of series: cell-based, human. To be noted: paricalcitol 0.01 μM, arsenic trioxide 0.8 μM, after 24 hrs. On the procedure: (§1) HL-60 and NB-4 myeloid leukemia cell lines were treated with paricalcitol (0.01 μM for HL-60, 0.1 μM for NB-4) and/or arsenic trioxide (0.8 μM for HL-60, 0.6 μM for NB-4). Control cells were treated with vehicle alone. […] Cell lysates were also made and used for Western blot which was probed with antibodies to C/EBPβ. (B) Cell lysate of HL-60 cells were made after 3 days and used for Western blot which was probed sequentially with antibodies to Bcl-2, BclXL and Bax (C) Cell lysates of HL-60 cells were made after 1, 2 or 3 days and used for Western blot which was probed sequentially with antibodies to phosphorylated ERK. (D) After pretreatment either with or without […] of PD98059 for 1 hour, HL-60 cells were treated with paricalcitol (0.01 μM) and/or arsenic trioxide (0.8 μM) for 2 days. Control cells were treated with vehicle alone. CD14 expression was measured by flow cytometry.
(§2) In FIG. 6B, HT-29 colon cancer cells were treated with paricalcitol (10^−7M) for 0, 6, 12 or 24 hrs and RNA was harvested. Expression of 24 hydroxylase mRNA was analysed by RT-PCR. The amounts of mRNA were normalized by comparison to 18S RNA. In FIG. 6C, mononuclear cells extracted from spleens of either wild type or VDR knock-out mice were treated with paricalcitol (10^−8M) for either 12 or 24 hrs, and RNA was harvested. Expression of 24 hydroxylase mRNA was analysed by RT-PCR. […]

The test system of series [4] is 24-hydroxylase mRNA. Briefly: RT-PCR of 24-hydroxylase mRNA in NB-4 cells. The format is cell-based, human. The conditions noted are these: paricalcitol 0.1 μM, arsenic trioxide 0.6 μM, after 24 hrs. As to the method:
as §1, §2

The next series has as its system PML-RARα fusion protein. Briefly: Western blot for PML-RARα in PR9 cells with zinc. The format is cell-based, human. On the procedure: (A) NB-4 myeloid leukemia cell lines were treated with paricalcitol (0.1 μM) and/or arsenic trioxide (0.6 μM) for 3 days. Control cells were treated with vehicle alone. Cell lysates were made and used for Western blot which was probed sequentially with antibodies to RARA to detect the fusion protein PML-RARα. (B) U937 cells were stably transfected with either the control MT vector (U937-PMT) or the PML-RARα cDNA under the control of the Zn2^+-inducible murine metallothionein 1 promoter (PR9). Cells were treated either with (+) or without (−) Zn for 2 days. Paricalcitol and/or arsenic trioxide of the indicated doses were added to the cells. […] (C) U937-PMT and PR9 cells were treated either with or without Zn and with paricalcitol, and/or arsenic trioxide as indicated for 3 days, and CD14 expression was measured by flow cytometry.
Western blot analysis was performed as follows: cells were washed twice in PBS, suspended in lysis buffer (50 mM Tris at pH 8.0, 150 mM NaCl, 0.1% SDS, 0.5% sodium deoxycholate, 1% Nonidet P-40, phenylmethylsulfonyl fluoride at 100 μg/mL, aprotinin at 2 μg/mL, pepstatin at 1 μg/mL, and leupetin at 10 μg/mL), and placed on ice for 30 minutes. […] Protein concentrations were quantitated by using the Bio-Rad protein Assay Dye Reagent Concentrate (Bio-Rad Laboratories, Hercules, Calif.) according to the manufacture's recommendation. […]

As to `C[C@H](/C=C/[C@H](C)C(C)(C)O)[C@H]1CC[C@H]2/C(=C/C=C3C[C@@H](O)C[C@H](O)C3)CCC[C@]12C` [paricalcitol, 19-nor-1,25, (OH)2D3], the serum calcium levels in series [1] was 10.2 ± 0.7 mg/dL. Moreover, the “induction of 24-hydroxylase” value with 24-hydroxylase mRNA [2] is given as “not inducible”. In addition, the “mRNA levels of 24-hydroxylase” value in the series on 24-hydroxylase mRNA [3] and with 24-hydroxylase mRNA [4] was “increased” in each case.
arsenic trioxide: the “concentration at which PML-RARα protein expression was barely detectable” value with PML-RARα fusion protein (PR9 cells with zinc) is “over 0.4 μM”. In the series with PML-RARα fusion protein (PR9 cells, dose dependent), the “protein level of PML-RARa induced by zinc” value is recorded as “decreased the protein level of PML-RARa”.

(Values after patent US20050054620A1, “Paricalcitol as a chemotherapeutic agent” (priority 2003, published 2005).)
